In patent US20070203149A1, “CCR5 ANTAGONISTS USEFUL FOR TREATING HIV” (Schering Corporation, priority 2006, published 2007):
pIC50: −log10 of the molar value.

Experiments:
[1] = system: primary R5 HIV 1 clinical isolates; test: Inhibition of viral replication in human PBMCs infected with primary R5 HIV 1 clinical isolates; assay type: cell-based; conditions: for pIC50: Human immunodeficiency virus 1, PBMC, human PBMCs infected with primary R5 HIV 1 clinical isolates, read-out: median IC50, inhibition of viral replication
Experimental: This assay uses primary peripheral blood mononuclear cells or the stable U87-CCR5 cell line to determine the effect of anti-CCR5 compounds to block infection of primary HIV-1 strains. The primary lymphocytes are purified from normal healthy donors and stimulated in vitro with PHA and IL-2 three days prior to infection. Using a 96-well plate format, cells are pretreated with drug for 1 hour at 37° C. and subsequently infected with an M-tropic HIV-1 isolates. Following infection, the cells are washed to remove residual inoculum and cultured in the presence of compound for 4 days. Culture supernatants are harvested and viral replication measured by determination of viral p24 antigen concentration.

[2] = Human rising single dose study: metabolite profiling of plasma and urine by LC-MS/MS after oral compound of formula A; assay type: in vivo
Experimental: (M5a/M5b/M5c/M5d are potential rotamers of the compound of Formula I)
In a human rising single dose study, plasma levels of the compound of formula I relative to the compound of formula A were assessed in blood samples drawn at 2, 8, and 24 hr following oral administration of the compound of formula A. An in-house metabolite profiling method using LC-MS/MS detection was employed for this assessment. Based on this qualitative assessment of the compound of formula I in human plasma, the concentrations of the compound of formula I are projected to be up to 3-fold higher than the compound of formula A in human plasma (see FIG. 5). This is considered to be a surprising and unexpected result.

COC[C@@H](c1ccc(C(F)(F)F)cc1)N1CCN(C2(C)CCN(C(=O)c3c(C)ncnc3C)CC2)C[C@@H]1C [SCH-417690, reference compound]
pIC50 [1]: 8.12

Cc1ncnc(C)c1C(=O)N1CCC(C)(N2CCN([C@@H](c3cccc(F)c3)C3CCN(S(=O)(=O)C4CC4)CC3)[C@@H](C)C2)CC1 [compound of formula A, reference compound]
pIC50 [1]: 9.00

Cc1nc[n+]([O-])c(C)c1C(=O)N1CCC(C)(N2CCN([C@@H](c3cccc(F)c3)C3CCN(S(=O)(=O)C4CC4)CC3)[C@@H](C)C2)CC1 [compound of formula I]
pIC50 [1]: 8.10 | in vitro potency relative to the compound of formula A ([1]; human PBMCs, primary R5 HIV 1 isolates, ratio of median IC50 values): approximately ⅛ | metabolite status in human urine ([2]; 0-24 hr urine, single oral 50 mg compound of Formula A, healthy male volunteers): significant metabolite | metabolite status in clinical samples ([2]; first-in-man studies after administration of compound of formula A): major metabolite | plasma concentration relative to the compound of formula A ([2]; human plasma, samples at 2, 8 and 24 hr after oral compound of formula A, projected from qualitative assessment): up to 3 fold | metabolite status in human plasma ([2]; plasma 2 hr, single oral 50 mg compound of Formula A, healthy male volunteers): significant metabolite | susceptibility to further metabolism ([2]; stated as consequence of being a major metabolite): less susceptible to further rapid metabolism
